Measured values reported in PubChem BioAssay (NCI).
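Five concentrations, 48 hours, 96-well plates. At the GI50, growth is halved. TGI: total growth inhibition.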

Columns and labels:
Assay in all cases: inhibition of tumour cell growth, NCI panel, 48 h
HCT-15 colon = tested on: HCT-15 colon
LOX IMVI melanoma = tested on: LOX IMVI melanoma
MCF7 breast = tested on: MCF7 breast
HOP-62 NSCLC = tested on: HOP-62 NSCLC
SR leukemia = tested on: SR leukemia
SK-MEL-28 melanoma = tested on: SK-MEL-28 melanoma
SF-295 CNS = tested on: SF-295 CNS
SN12C renal = tested on: SN12C renal

Row | SMILES | GI50 (HCT-15 colon) [µM] | TGI (HCT-15 colon) [µM] | GI50 (LOX IMVI melanoma) [µM] | TGI (LOX IMVI melanoma) [µM] | GI50 (MCF7 breast) [µM] | TGI (MCF7 breast) [µM] | GI50 (HOP-62 NSCLC) [µM] | TGI (HOP-62 NSCLC) [µM] | GI50 (SR leukemia) [µM] | TGI (SR leukemia) [µM] | GI50 (SK-MEL-28 melanoma) [µM] | TGI (SK-MEL-28 melanoma) [µM] | GI50 (SF-295 CNS) [µM] | TGI (SF-295 CNS) [µM] | GI50 (SN12C renal) [µM] | TGI (SN12C renal) [µM]
1 | Cc1cccc2nc3cccc(C(=O)NCCNCCNCCNC(=O)c4cccc5nc6cccc(C)c6nc45)c3nc12 | 0.0268 | > 100 | < 0.01 | 0.53 | < 0.01 | > 33 | < 0.01 | 1.19 | < 0.01 | 1.22 | 0.101 | 4.37 | < 0.01 | 1.11 | 0.0489 | 14.1
2 | CC(=O)OC12c3ccccc3-c3ccccc3C1C(C(=O)O)C2(Cl)C(=O)O (configuration not stated) |  | > 10 |  | > 10 |  | > 10 |  | > 10 |  | > 10 |  | > 10 |  | > 10 |  | > 10
3 | COc1ccc2c(Cc3c4ccccc4cc4ccccc34)cncc2c1O |  | > 22 |  | 8.5 |  | > 38.2 |  | 22.4 |  | 0.551 |  | 72.3 |  | 8.35 |  | > 63.9
4 | CC1(C)CCCC(C)(C2CCC3(C)C2C(O)CC2C4(C)CCC(O)C(C)(C)C4C(O)CC23C)O1 (configuration not stated) |  | 24.7 |  | > 100 |  | 29.3 |  |  |  | 86.1 |  | 28.2 |  | 24.7 |  | 30.8
5 | N.N.O=P([O-])([O-])CN(CCN(CP(=O)([O-])[O-])CP(=O)([O-])[O-])CP(=O)([O-])[O-].[Pt+2] |  |  | > 100 | > 100 |  |  | > 100 | > 100 |  |  | > 100 | > 100 | > 100 | > 100 | > 100 | > 100
6 | Cc1ccc(/C=C/C(=N/N=C(N)N)c2ccccc2)cc1 | 2.74 | 13.8 | 3.28 | 15.5 | 0.465 | 12.4 | 3.57 | 16 | 0.897 | 6.32 | 3.95 | 15.8 | 2.99 | 13.1 | 4.5 | 16.9
7 | c1ccc(Nc2nc(-c3ccccn3)cs2)nc1 | 0.172 | > 89.2 | 0.255 | 6.67 | 0.508 | > 100 | 0.619 | > 100 | 0.308 | 7.95 | 1.5 | > 100 | 0.297 | 6.61 | 0.873 | > 100
8 | CCC(C)[C@H](NC(=O)NC(=O)NC(=O)CI)C(=O)OC (some centres not stated) | 1.76 | 3.42 | 1.69 | 3.27 | 3.02 | 12.9 | 16.3 | 31.4 | 1.37 | 4.15 | 13.6 | 27.5 | 15.2 | 28.9 | 4.28 | 20.4
9 | C=C1CCC2C3(C)COC(c4c(OC)cccc4OC)OC3CCC2(C)C1C/C=C1/C(=O)OCC1O (configuration not stated) | 2.28 | 7.87 | 1.63 | 3.25 | 2.53 | 12.8 | 14.8 | 28.7 | 1.62 | 4.99 | 1.93 | 4.05 | 5.28 | 18.1 | 2.33 | 8.27
10 | Nc1nc2c(nnn2C2OC(CO)C(O)C2O)c(=O)[nH]1 (configuration not stated) | 0.714 | > 100 | 0.475 | > 100 | 1.42 | > 100 | 3.2 | > 100 | 1.16 | > 100 | 16.9 | > 100 | 1.21 | > 100 | 3.25 | > 100
11 | COc1cc2nc(-c3ccc(Cl)cc3)cc(OCCCN3CCCC3)c2cc1OC | 0.567 | 11.5 | 0.191 | 0.446 | 1.33 | 3.07 | 1.38 | 10.6 | 0.251 | 1.38 | 1.48 | 4.28 | 1.22 | 2.94 | 0.914 | 13.7
12 | O=[N+]([O-])c1ccc(Sc2nc(Cl)nc(NC3CCCC3)n2)cc1 | > 10 | > 10 | > 10 | > 10 | > 10 | > 10 | > 10 | > 10 | > 10 | > 10 | 7 | > 10 | > 10 | > 10 | > 10 | > 10
13 | O=C1CCCCC=C1C[N+](=O)[O-] | 13.5 | 35.8 | 18.4 | 39.1 | 20 | 55.1 | 15.1 | 45.6 | 3.7 | 12.3 | 28.5 | 92 | 46.4 | > 100 | 31.6 | > 100
14 | O=C1C(=O)c2ccccc2C(O)=C1CCCc1ccc(C2CCCC2)cc1 | 4.25 | 16.9 | 3.16 | 9.22 | 4.21 | 21.1 | 8.04 | 23.6 | 3.39 | 12.9 | 7.69 | 40.1 | 3.4 | 11 | 6.78 | 95
15 | O=C1C(Nc2ccc(Br)cc2)=C(I)C(=O)c2ncccc21 | 0.588 | 1.79 | 0.668 | 1.41 |  |  | 2.31 | 8.31 | 0.314 | 2.42 | 1.82 | 6.1 | 7.56 | 14.9 | 0.828 | 1.74
16 | CCN(CC)CCOc1ccc(/C=C2\C[C@H]3[C@H]4CC=C5C[C@@H](O)CC[C@]5(C)[C@H]4CC[C@]3(C)[C@H]2O)cc1OC | 9.19 | 18.5 | 7.7 | 15.3 | 12.4 | > 50 | 8.89 | 22.8 |  |  | 7.74 | > 50 | 10.4 | 25.4 | 6.78 | 14
17 | CO[C@]12C=C/C(=C(/C(=O)OCc3cccnc3)C(=O)CCCCCCCC[C@@]3(OC)C=C/C(=C(/C(=O)OCc4cccnc4)C(=O)CCCCCCCC1)O3)O2 | 1.04 | 2.82 | 0.585 | 1.6 | 0.504 | 8.89 |  |  | 1.12 | > 50 | 1.37 | 6.45 |  |  | 1.84 | 34.2

Row | SMILES | GI50 (HCT-15 colon) [µM] | TGI (HCT-15 colon) [µM] | GI50 (LOX IMVI melanoma) [µM] | TGI (LOX IMVI melanoma) [µM] | GI50 (MCF7 breast) [µM] | TGI (MCF7 breast) [µM] | GI50 (HOP-62 NSCLC) [µM] | TGI (HOP-62 NSCLC) [µM] | GI50 (SR leukemia) [µM] | TGI (SR leukemia) [µM] | GI50 (SK-MEL-28 melanoma) [µM] | TGI (SK-MEL-28 melanoma) [µM] | GI50 (SF-295 CNS) [µM] | TGI (SF-295 CNS) [µM] | GI50 (SN12C renal) [µM] | TGI (SN12C renal) [µM]
18 | CC(C)(CCN=C(N)Nc1ccccn1)c1ccc(C(F)(F)F)cc1 | 14.4 | 29.2 | 14.2 | 27.6 | 12.2 | 27.4 | 15.7 | 30.2 | 15.1 | 32.9 | 15.8 | 30.6 | 14.9 | 29.3 | 15.1 | 29.8
19 | CC(C)=CCC1=C(OCC(=O)O)C(=O)c2ccccc2C1=O |  | > 100 |  | > 100 |  | 96.3 |  | > 100 |  | > 100 |  | > 100 |  | 41.4 |  | 74.8
20 | CCOC(=O)c1ccc2c(c1)nc(/C=C/c1ccc(Cl)cc1)n2-c1cc(C(C)(C)C)[nH]n1 | 4.26 | > 100 |  |  | 2.71 | 10.2 | 5.24 | 28.8 |  |  | 3.51 | 40.3 | 2.63 | 8.82 | 7.3 | 81
21 | Nc1ccccc1NC(=O)c1ccc(CN2CCC/C(=C\c3ccccn3)C2=O)cc1 | 1.11 | > 100 | 0.696 | 3.07 | 0.797 | > 100 | 2.5 | > 100 | 0.47 | > 100 |  |  | 1.92 | 11.7 | 2.59 | > 100
22 | C1COCCOCCOCCOCCOCCO1.[Cl][Sn]([Cl])([c]1ccccc1)[c]1ccccc1 | 4.14 | 13.5 | 2.36 | 4.77 |  |  | 20.3 | 35 |  |  | 2 | 4.19 | 16.1 | 30 | 7.02 | 20.4
23 | CCCCCCCCCCCCCCCC(=O)N[C@H](/C=C/[C@H](O)CCCCCCCCCCCCC)CO | > 100 | > 100 | > 100 | > 100 | > 100 | > 100 | > 100 | > 100 |  |  | > 100 | > 100 | > 100 | > 100 | > 100 | > 100
24 | N#Cc1ccsc1NC(=O)COC(=O)c1cccc(S(=O)(=O)N2CCc3ccccc32)c1 | 3.25 | > 100 | 7.69 | > 100 | 19.8 | > 100 | 22 | > 100 | 22.9 | > 100 | 22.4 | > 100 | 33.4 | > 100 |  | 
25 | Clc1nc(Cl)c2c3c(sc2n1)CCCC3 | 4.07 | > 100 | 1.78 | > 100 | 3.56 | > 100 | > 100 | > 100 |  |  | 6.97 | > 100 | > 100 | > 100 | 3.26 | > 100
26 | NS(=O)(=O)c1ccc(NCc2cnc3ccccc3n2)cc1 |  | > 100 |  |  |  | > 100 |  | > 100 |  | > 100 |  | > 100 |  | > 100 |  | > 100
27 | C=C1CC[C@@H]2[C@](C)(COC(C)=O)[C@H](OC(C)=O)CC[C@@]2(C)[C@@H]1CC(Nc1ccc(S(=O)(=O)Nc2cc(C)on2)cc1)C1=CCOC1=O (some centres not stated) | 1.5 | 3.83 | 1.18 | 2.54 |  |  | 8.88 | 22.9 | 0.375 | 3.36 | 2.02 | 4.31 | 8.13 | 21 | 1.73 | 4.52
28 | CCCCCCC/C=C/[C@H]1O[C@]2(O)C(=O)C=C3C[C@@H](O[C@@H]4O[C@H](CO)[C@@H](O)C(O)[C@@H]4O)C[C@@H]3[C@H]2C=C1C (some centres not stated) | 1.04 | 4.59 | 0.677 | 1.61 | 1.05 | 7.88 |  |  | 0.717 | 2.85 | 3.97 | 8.62 | 3.87 | 8.79 | 2.8 | 10.7
29 | CN(C)CCC=C1c2ccccc2C(C)(C)c2ccccc21 | 12.3 | 27.5 | 9.46 | 22 | 10.2 | 22.5 | 17.4 | 33.5 |  |  | 2.05 | 4.31 | 3.92 | 19.7 | 15.6 | 34
30 | C[N+](C)(CCCCCC[N+](C)(C)CCCN1C(=O)c2cc3ccccc3cc2C1=O)CCCN1C(=O)c2cc3ccccc3cc2C1=O | > 37.5 | > 37.5 | > 37.5 | > 37.5 | > 37.5 | > 37.5 | > 37.5 | > 37.5 |  |  | > 37.5 | > 37.5 | > 37.5 | > 37.5 | > 37.5 | > 37.5
31 | COC(=O)c1ccc2c(c1)C(=O)c1c-2n(C)c(=O)c2cc(OC)c(OC)cc12 | > 50 | > 50 | > 50 | > 50 | > 50 | > 50 | 17.7 | > 50 |  |  | > 50 | > 50 | 34 | > 50 | > 50 | > 50
32 | C[C@]12CC[C@H]3[C@@H](CCC4=CC(=O)CC[C@@]43C)[C@@H]1CC[C@@H]2C(=O)COS(=O)(=O)c1ccc(Br)cc1 |  | 55.7 |  |  |  | 22.5 |  | 46.6 |  | 3.12 |  | 43.5 |  | 47.3 |  | 34.3
33 | Cn1cc(-c2csc(-c3cn(CCCCN4CCCCC4)c4ccc(F)cc34)n2)c2cccnc21 | 1.7 | 3.06 |  |  |  |  | 14 | 31.1 |  |  |  |  | 1.63 | 3.05 |  | 
